According to the NIST ThermoML archive (doi:10.1021/acs.jced.8b00132):
Several values for one entry are separate records, joined by “and”; a condition that tells them apart may be missing. Equal values may be shown once. Numbers after ± are expanded uncertainties.

O=C(C(F)(F)C(F)(F)F)C(F)(C(F)(F)F)C(F)(F)F [dodecafluoro-2-methylpentan-3-one]
Conditions	thermal conductivity
344.55 K, 132 kPa, Gas, hot wire	0.01525 ± 0.00073 W/m/K
344.55 K, 192 kPa, Gas, transient hot wire	0.01458 ± 0.00091 W/m/K
344.56 K, 170 kPa, Gas, transient hot wire	0.01468 ± 0.00093 W/m/K
344.56 K, 192 kPa, Gas, transient hot wire	0.01463 ± 0.00091 W/m/K
344.57 K, 170 kPa, Gas, transient hot wire	0.01503 ± 0.00094 W/m/K
344.6 K, 134 kPa, Gas, transient hot wire	0.01526 ± 0.00095 W/m/K and 0.01525 ± 0.00095 W/m/K
344.61 K, 83 kPa, Gas, hot wire	0.01485 ± 0.0007 W/m/K
344.62 K, 83 kPa, Gas, hot wire	0.0148 ± 0.0007 W/m/K
344.67 K, 26 kPa, Gas, hot wire	0.01453 ± 0.00069 W/m/K
344.68 K, 26 kPa, Gas, hot wire	0.01449 ± 0.00069 W/m/K
344.8 K, 192 kPa, Gas, transient hot wire	0.01479 ± 0.00097 W/m/K and 0.01481 ± 0.00097 W/m/K
344.83 K, 170 kPa, Gas, transient hot wire	0.01525 ± 0.00095 W/m/K and 0.01449 ± 0.00091 W/m/K
344.85 K, 134 kPa, Gas, transient hot wire	0.01542 ± 0.00096 W/m/K
344.87 K, 134 kPa, Gas, transient hot wire	0.01544 ± 0.001 W/m/K
345.08 K, 191 kPa, Gas, transient hot wire	0.0149 ± 0.00095 W/m/K
345.08 K, 192 kPa, Gas, transient hot wire	0.01491 ± 0.00095 W/m/K
345.11 K, 169 kPa, Gas, transient hot wire	0.01531 ± 0.00096 W/m/K
345.11 K, 170 kPa, Gas, transient hot wire	0.01528 ± 0.00095 W/m/K
345.14 K, 134 kPa, Gas, transient hot wire	0.01546 ± 0.00096 W/m/K
345.15 K, 133 kPa, Gas, transient hot wire	0.01547 ± 0.00096 W/m/K
345.36 K, 191 kPa, Gas, transient hot wire	0.01503 ± 0.00095 W/m/K
345.37 K, 191 kPa, Gas, transient hot wire	0.01504 ± 0.00095 W/m/K
345.39 K, 169 kPa, Gas, transient hot wire	0.01534 ± 0.00096 W/m/K
345.4 K, 169 kPa, Gas, transient hot wire	0.01485 ± 0.00093 W/m/K
345.44 K, 133 kPa, Gas, transient hot wire	0.01551 ± 0.00099 W/m/K
345.45 K, 133 kPa, Gas, transient hot wire	0.0155 ± 0.00099 W/m/K
345.67 K, 191 kPa, Gas, transient hot wire	0.01515 ± 0.00094 W/m/K
345.68 K, 191 kPa, Gas, transient hot wire	0.01514 ± 0.00094 W/m/K
345.72 K, 169 kPa, Gas, transient hot wire	0.0154 ± 0.00095 W/m/K and 0.01511 ± 0.00094 W/m/K
345.77 K, 132 kPa, Gas, transient hot wire	0.01531 ± 0.00095 W/m/K
345.77 K, 133 kPa, Gas, transient hot wire	0.01548 ± 0.00096 W/m/K
358.25 K, 257 kPa, Gas, hot wire	0.01686 ± 0.0008 W/m/K
358.26 K, 257 kPa, Gas, hot wire	0.01685 ± 0.00079 W/m/K
358.3 K, 188 kPa, Gas, hot wire	0.01631 ± 0.00078 W/m/K
358.3 K, 189 kPa, Gas, hot wire	0.01648 ± 0.00078 W/m/K
358.33 K, 91 kPa, Gas, hot wire	0.01584 ± 0.00075 W/m/K
358.34 K, 91 kPa, Gas, hot wire	0.01584 ± 0.00075 W/m/K
358.37 K, 26 kPa, Gas, hot wire	0.01548 ± 0.00073 W/m/K and 0.01551 ± 0.00073 W/m/K
358.38 K, 256 kPa, Gas, hot wire	0.01692 ± 0.0008 W/m/K
358.38 K, 257 kPa, Gas, hot wire	0.01694 ± 0.0008 W/m/K
358.43 K, 187 kPa, Gas, hot wire	0.01629 ± 0.00078 W/m/K
358.43 K, 188 kPa, Gas, hot wire	0.01632 ± 0.00078 W/m/K
358.47 K, 91 kPa, Gas, hot wire	0.01587 ± 0.00075 W/m/K and 0.0159 ± 0.00075 W/m/K
358.5 K, 26 kPa, Gas, hot wire	0.01551 ± 0.00073 W/m/K
358.5 K, 256 kPa, Gas, hot wire	0.01713 ± 0.00081 W/m/K
358.51 K, 26 kPa, Gas, hot wire	0.0155 ± 0.00073 W/m/K
358.52 K, 256 kPa, Gas, hot wire	0.0169 ± 0.0008 W/m/K
358.57 K, 187 kPa, Gas, hot wire	0.01629 ± 0.00077 W/m/K and 0.01635 ± 0.00078 W/m/K
358.62 K, 91 kPa, Gas, hot wire	0.01584 ± 0.00075 W/m/K and 0.01592 ± 0.00075 W/m/K
358.62 K, 255 kPa, Gas, hot wire	0.01734 ± 0.00082 W/m/K
358.63 K, 256 kPa, Gas, hot wire	0.01729 ± 0.00082 W/m/K
358.65 K, 67979 kPa, Liquid, transient hot wire	0.07391 ± 0.0015 W/m/K
358.66 K, 26 kPa, Gas, hot wire	0.01548 ± 0.00073 W/m/K and 0.01547 ± 0.00073 W/m/K
358.66 K, 67960 kPa, Liquid, transient hot wire	0.07383 ± 0.0015 W/m/K
358.69 K, 56156 kPa, Liquid, transient hot wire	0.07064 ± 0.0014 W/m/K
358.69 K, 56160 kPa, Liquid, transient hot wire	0.07055 ± 0.0014 W/m/K
358.71 K, 187 kPa, Gas, hot wire	0.01648 ± 0.00078 W/m/K and 0.01644 ± 0.00078 W/m/K
358.77 K, 92 kPa, Gas, hot wire	0.01588 ± 0.00075 W/m/K and 0.01586 ± 0.00075 W/m/K
358.77 K, 255 kPa, Gas, hot wire	0.01736 ± 0.00082 W/m/K
358.77 K, 43866 kPa, Liquid, transient hot wire	0.06694 ± 0.0014 W/m/K
358.77 K, 43876 kPa, Liquid, transient hot wire	0.06686 ± 0.0014 W/m/K
358.78 K, 255 kPa, Gas, hot wire	0.01726 ± 0.00081 W/m/K
358.82 K, 26 kPa, Gas, hot wire	0.01555 ± 0.00073 W/m/K and 0.0155 ± 0.00073 W/m/K
358.82 K, 67912 kPa, Liquid, transient hot wire	0.07388 ± 0.0015 W/m/K
358.82 K, 67930 kPa, Liquid, transient hot wire	0.07402 ± 0.0015 W/m/K
358.83 K, 33615 kPa, Liquid, transient hot wire	0.06347 ± 0.0013 W/m/K
358.84 K, 257 kPa, Gas, transient hot wire	0.01632 ± 0.001 W/m/K
358.84 K, 258 kPa, Gas, transient hot wire	0.01621 ± 0.001 W/m/K
358.84 K, 33614 kPa, Liquid, transient hot wire	0.06347 ± 0.0013 W/m/K
358.85 K, 186 kPa, Gas, hot wire	0.0166 ± 0.00079 W/m/K and 0.01657 ± 0.00079 W/m/K
358.85 K, 56137 kPa, Liquid, transient hot wire	0.07063 ± 0.0014 W/m/K
358.88 K, 189 kPa, Gas, transient hot wire	0.01639 ± 0.001 W/m/K
358.88 K, 56124 kPa, Liquid, transient hot wire	0.07064 ± 0.0014 W/m/K
358.9 K, 188 kPa, Gas, transient hot wire	0.01635 ± 0.001 W/m/K
358.92 K, 24957 kPa, Liquid, transient hot wire	0.06017 ± 0.0012 W/m/K
358.92 K, 24958 kPa, Liquid, transient hot wire	0.06023 ± 0.0012 W/m/K
358.94 K, 92 kPa, Gas, hot wire	0.01588 ± 0.00075 W/m/K
358.95 K, 92 kPa, Gas, hot wire	0.01588 ± 0.00075 W/m/K
358.95 K, 43858 kPa, Liquid, transient hot wire	0.06694 ± 0.0014 W/m/K
358.95 K, 43862 kPa, Liquid, transient hot wire	0.06691 ± 0.0014 W/m/K
358.98 K, 26 kPa, Gas, hot wire	0.01553 ± 0.00073 W/m/K
358.99 K, 26 kPa, Gas, hot wire	0.0155 ± 0.00073 W/m/K
358.99 K, 67877 kPa, Liquid, transient hot wire	0.0739 ± 0.0015 W/m/K
358.99 K, 67897 kPa, Liquid, transient hot wire	0.07388 ± 0.0015 W/m/K
